Experiments:
[1] = biological target: T1, Furin (108-574-Tev-Flag-His) enzyme (Homo sapiens, UniProt P09958); assay: Furin enzyme assay; assay type: biochemical; conditions: for IC50: read-out: furin enzyme pIC50 (converted)
T1 construct: Furin (108-574-Tev-Flag-His) enzyme was expressed and purified from CHO cells; TEV cleavage site (C); FLAG (C); His (C); made in house; host or cells: CHO cells
How it was run: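 CHO-expressed, purified furin construct at 40 pM in 100 mM HEPES pH7.5, 1 mM CaCl2, 0.005% Triton X-100. Eleven-point 1:3 series, 0.00017–10 μM final, incubated 2 h at room temperature and read on Envision. pXC50 from four-parameter fit.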

[2] = biological target: T2, furin (endogenous protease) in U20S cells (Homo sapiens, UniProt P09958); assay: Furin cell-based assay (image-based, Golgi-targeted GFP with BMP10 furin/PCSK cleavage site); conditions: 24-hour incubation, read-out: furin golgi cell pXC50 (converted);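 further: Read-out is mean GFP fluorescence of Golgi puncta per cell by high-content imaging, retained when furin inhibited, over an eleven-point 0.00017–10 µM series, four-parameter fit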
T2 construct: the endogenous protease cleaves GFP; endogenous in cells; host or cells: U2OS cells transduced with a BacMam reporter
T2 sequence (P09958 108-794): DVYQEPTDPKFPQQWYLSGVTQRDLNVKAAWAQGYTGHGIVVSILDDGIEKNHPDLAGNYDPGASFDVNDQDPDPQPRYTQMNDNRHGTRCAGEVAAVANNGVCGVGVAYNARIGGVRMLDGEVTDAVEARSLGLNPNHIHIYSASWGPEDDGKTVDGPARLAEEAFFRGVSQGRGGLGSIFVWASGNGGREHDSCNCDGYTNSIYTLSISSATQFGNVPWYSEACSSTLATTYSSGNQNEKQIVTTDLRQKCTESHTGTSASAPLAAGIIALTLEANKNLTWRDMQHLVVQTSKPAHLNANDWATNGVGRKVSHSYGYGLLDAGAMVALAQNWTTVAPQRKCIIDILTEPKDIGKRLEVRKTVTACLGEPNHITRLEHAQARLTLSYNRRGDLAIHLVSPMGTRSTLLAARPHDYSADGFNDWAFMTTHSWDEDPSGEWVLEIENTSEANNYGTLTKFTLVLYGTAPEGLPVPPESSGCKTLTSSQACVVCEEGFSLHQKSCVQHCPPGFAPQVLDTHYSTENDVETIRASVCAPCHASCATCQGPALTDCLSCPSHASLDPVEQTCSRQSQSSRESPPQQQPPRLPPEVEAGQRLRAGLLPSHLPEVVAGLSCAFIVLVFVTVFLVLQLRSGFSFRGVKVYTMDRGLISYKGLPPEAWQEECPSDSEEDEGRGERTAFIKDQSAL

T1 sequence (P09958 108-574): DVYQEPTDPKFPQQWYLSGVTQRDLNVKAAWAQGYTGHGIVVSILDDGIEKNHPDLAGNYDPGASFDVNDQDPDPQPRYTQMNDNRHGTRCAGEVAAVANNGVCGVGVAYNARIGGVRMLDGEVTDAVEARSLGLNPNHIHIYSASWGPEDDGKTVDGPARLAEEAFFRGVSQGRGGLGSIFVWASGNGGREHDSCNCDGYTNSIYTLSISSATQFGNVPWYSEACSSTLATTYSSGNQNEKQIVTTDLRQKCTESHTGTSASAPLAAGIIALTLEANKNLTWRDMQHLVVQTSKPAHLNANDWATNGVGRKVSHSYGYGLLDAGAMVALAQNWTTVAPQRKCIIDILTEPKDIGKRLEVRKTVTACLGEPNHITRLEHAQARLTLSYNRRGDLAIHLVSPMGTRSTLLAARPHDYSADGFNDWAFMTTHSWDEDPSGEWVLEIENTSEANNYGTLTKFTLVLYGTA

| Compound | furin enzyme pIC50 [1] | EC50 [2] [nM] | IC50 [1] [nM] |
| --- | --- | --- | --- |
| CC(=O)NCC1CCN(Cc2cc(Oc3ccc(N4CCN(CCC(=O)O)CC4)nc3)cc(-c3cc(Cl)cc(Cl)c3)c2)CC1 [Example 258, 3-(4-(5-((5-((4-(acetamidomethyl)piperidin-1-yl)methyl)-3′,5′-dichloro-[1,1′-biphenyl]-3-yl)oxy)pyridin-2-yl)piperazin-1-yl)propanoic acid] | 9.6 | 31.6 | – |
| CS(=O)(=O)CCCN1CCN(c2ccc(Oc3cc(CN4CCC(CC(N)=O)CC4)cc(-c4cc(Cl)cc(Cl)c4)n3)cn2)CC1 [Example 264, 2-(1-((2-(3,5-dichlorophenyl)-6-((6-(4-(3-(methylsulfonyl)propyl)piperazin-1-yl)pyridin-3-yl)oxy)pyridin-4-yl)methyl)piperidin-4-yl)acetamide] | 8.6 | 3.98 | – |
| CC(=O)NCC1CCN(Cc2cc(Oc3cnc(N4CCN(CCC(=O)O)CC4)c(F)c3)nc(-c3cc(Cl)cc(Cl)c3)c2)CC1 [Example 266, 3-(4-(5-((4-((4-(acetamidomethyl)piperidin-1-yl)methyl)-6-(3,5-dichlorophenyl)pyridin-2-yl)oxy)-3-fluoropyridin-2-yl)piperazin-1-yl)propanoic acid] | 8.7 | 50.1 | – |
| CC(CC1CCN(Cc2cc(Oc3cnc(N4CCNCC4)nc3)nc(-c3cc(Cl)cc(Cl)c3)c2)CC1)C(=O)O (stereo not shown) [Example 269, 3-(1-((2-(3,5-dichlorophenyl)-6-((2-(piperazin-1-yl)pyrimidin-5-yl)oxy)pyridin-4-yl)methyl)piperidin-4-yl)-2-methylpropanoic acid] | 8.5 | 25.1 | – |
| CS(=O)(=O)CCCN1CCN(c2ccc(Oc3cc(CN4CCC(CCC(=O)O)CC4)cc(-c4cc(Cl)cc(Cl)c4)n3)cn2)CC1 [Example 271, 3-(1-((2-(3,5-dichlorophenyl)-6-((6-(4-(3-(methylsulfonyl)propyl)piperazin-1-yl)pyridin-3-yl)oxy)pyridin-4-yl)methyl)piperidin-4-yl)propanoic acid] | 8.9 | 25.1 | – |
| CNC(=O)NCC1CCN(Cc2cc(Oc3cnc(N4CCN(CCCS(C)(=O)=O)CC4)nc3)nc(-c3cc(F)cc(Cl)c3)c2)CC1 [Example 274, 1-((1-((2-(3-chloro-5-fluorophenyl)-6-((2-(4-(3-(methylsulfonyl)propyl)piperazin-1-yl)pyrimidin-5-yl)oxy)pyridin-4-yl)methyl)piperidin-4-yl)methyl)-3-methylurea] | 9 | 6.31 | – |
| COC(=O)NCC1CCN(Cc2cc(Oc3cnc(N4CCNCC4)nc3)nc(-c3cc(F)cc(Cl)c3)c2)CC1 [Example 275, methyl ((1-((2-(3-chloro-5-fluorophenyl)-6-((2-(piperazin-1-yl)pyrimidin-5-yl)oxy)pyridin-4-yl)methyl)piperidin-4-yl)methyl)carbamate] | 8.3 | 100 | – |
| CS(=O)(=O)CCC1CCN(Cc2cc(Oc3ccc(N4CCN(CCC(=O)O)CC4)nc3)nc(-c3cc(Cl)cc(Cl)c3)c2)CC1 [Example 276, 3-(4-(5-((6-(3,5-dichlorophenyl)-4-((4-(2-(methylsulfonyl)ethyl)piperidin-1-yl)methyl)pyridin-2-yl)oxy)pyridin-2-yl)piperazin-1-yl)propanoic acid] | 9 | 50.1 | – |
| NS(=O)(=O)CCC1CCN(Cc2cc(Oc3ccc(N4CCN(CCC(=O)O)CC4)nc3)nc(-c3cc(Cl)cc(Cl)c3)c2)CC1 [Example 277, 3-(4-(5-((6-(3,5-dichlorophenyl)-4-((4-(2-sulfamoylethyl)piperidin-1-yl)methyl)pyridin-2-yl)oxy)pyridin-2-yl)piperazin-1-yl)propanoic acid] | – | 50.1 | 0.0316 |
| CC(=O)NCC1CCN(Cc2cc(Oc3ccc(N4CCN(C(C)CC(=O)O)CC4)nc3)nc(-c3cc(Cl)cc(Cl)c3)c2)CC1 (stereo not shown) [Example 281, 3-(4-(5-((4-((4-(Acetamidomethyl)piperidin-1-yl)methyl)-6-(3,5-dichlorophenyl)pyridin-2-yl)oxy)pyridin-2-yl)piperazin-1-yl)butanoic acid] | 9.5 | 39.8 | – |
| CC(=O)NCC1CCN(Cc2cc(Oc3cnc(N4CCN(C(C)CC(=O)O)CC4)nc3)nc(-c3cc(Cl)cc(Cl)c3)c2)CC1 (stereo not shown) [Example 282, 3-(4-(5-((4-((4-(acetamidomethyl)piperidin-1-yl)methyl)-6-(3,5-dichlorophenyl)pyridin-2-yl)oxy)pyrimidin-2-yl)piperazin-1-yl)butanoic acid] | – | 7.94 | 0.2 |

Next, values leading:

| furin enzyme pIC50 [1] | EC50 [2] [nM] | IC50 [1] [nM] | Compound |
| --- | --- | --- | --- |
| 9.8 | 1.58 | – | CC(=O)NCC1CCN(Cc2cc(Oc3cnc(N4CCN(CCCS(C)(=O)=O)CC4)nc3)nc(-c3cc(Cl)cc(Cl)c3)c2)CC1 [Example 259, N-((1-((2-(3,5-dichlorophenyl)-6-((2-(4-(3-(methylsulfonyl)propyl)piperazin-1-yl)pyrimidin-5-yl)oxy)pyridin-4-yl)methyl)piperidin-4-yl)methyl)acetamide] |
| 9.2 | 10 | – | CNC(=O)NCC1CCN(Cc2cc(Oc3cnc(N4CCN(CCC(N)=O)CC4)nc3)nc(-c3cc(Cl)cc(Cl)c3)c2)CC1 [Example 261, 3-(4-(5-((6-(3,5-dichlorophenyl)-4-((4-((3-methylureido)methyl)piperidin-1-yl)methyl)pyridin-2-yl)oxy)pyrimidin-2-yl)piperazin-1-yl)propanamide] |
| 9 | 0.316 | – | CNC(=O)NCC1CCN(Cc2cc(Oc3cnc(N4CCN(CCOC)CC4)nc3)nc(-c3cc(Cl)cc(Cl)c3)c2)CC1 [Example 262, 1-((1-((2-(3,5-dichlorophenyl)-6-((2-(4-(2-methoxyethyl)piperazin-1-yl)pyrimidin-5-yl)oxy)pyridin-4-yl)methyl)piperidin-4-yl)methyl)-3-methylurea] |
| 9.4 | 7.94 | – | CNC(=O)NCC1(O)CCN(Cc2cc(Oc3cnc(N4CCN(CCC(N)=O)CC4)nc3)nc(-c3cc(Cl)cc(Cl)c3)c2)CC1 [Example 265, 3-(4-(5-((6-(3,5-dichlorophenyl)-4-((4-hydroxy-4-((3-methylureido)methyl)piperidin-1-yl)methyl)pyridin-2-yl)oxy)pyrimidin-2-yl)piperazin-1-yl)propanamide] |
| 9.9 | 50.1 | – | CCOC(=O)NCC1CCN(Cc2cc(Oc3cnc(N4CCN(CCC(=O)O)CC4)nc3)nc(-c3cc(Cl)cc(Cl)c3)c2)CC1 [Example 267, 3-(4-(5-((6-(3,5-dichlorophenyl)-4-((4-(((ethoxycarbonyl)amino)methyl)piperidin-1-yl)methyl)pyridin-2-yl)oxy)pyrimidin-2-yl)piperazin-1-yl)propanoic acid] |
| 9.1 | 63.1 | – | CCNC(=O)CC1CCN(Cc2cc(Oc3cnc(N4CCN(CCC(=O)O)CC4)nc3)nc(-c3cc(Cl)cc(Cl)c3)c2)CC1 [Example 268, 3-(4-(5-((6-(3,5-dichlorophenyl)-4-((4-(2-(ethylamino)-2-oxoethyl)piperidin-1-yl)methyl)pyridin-2-yl)oxy)pyrimidin-2-yl)piperazin-1-yl)propanoic acid] |
| 9.5 | 25.1 | – | CNC(=O)NCC1CCN(Cc2cc(Oc3cnc(N4CCN(CCC(=O)O)CC4)c(F)c3)nc(-c3cc(Cl)cc(Cl)c3)c2)CC1 [Example 270, 3-(4-(5-((6-(3,5-dichlorophenyl)-4-((4-((3-methylureido)methyl)piperidin-1-yl)methyl)pyridin-2-yl)oxy)-3-fluoropyridin-2-yl)piperazin-1-yl)propanoic acid] |
| 9.8 | 31.6 | – | CS(=O)(=O)CCCN1CCN(c2ncc(Oc3cc(CN4CCC(CCC(=O)O)CC4)cc(-c4cc(Cl)cc(Cl)c4)n3)cn2)CC1 [Example 272, 3-(1-((2-(3,5-dichlorophenyl)-6-((2-(4-(3-(methylsulfonyl)propyl)piperazin-1-yl)pyrimidin-5-yl)oxy)pyridin-4-yl)methyl)piperidin-4-yl)propanoic acid] |
| 8.2 | 31.6 | – | CC(=O)NCC1CCN(Cc2cc(Oc3cnc(N4CCN(CCC(N)=O)CC4)nc3)nc(-c3cc(F)c(F)c(Cl)c3)c2)CC1 [Example 273, 3-(4-(5-((4-((4-(acetamidomethyl)piperidin-1-yl)methyl)-6-(3-chloro-4,5-difluorophenyl)pyridin-2-yl)oxy)pyrimidin-2-yl)piperazin-1-yl)propanamide] |
| 9.4 | 10 | – | O=C(O)CC1CCN(Cc2cc(Oc3cnc(N4CCN(CCC5(O)CC5)CC4)nc3)nc(-c3cc(Cl)cc(Cl)c3)c2)CC1 [Example 278, 2-(1-((2-(3,5-dichlorophenyl)-6-((2-(4-(2-(1-hydroxycyclopropyl)ethyl)piperazin-1-yl)pyrimidin-5-yl)oxy)pyridin-4-yl)methyl)piperidin-4-yl)acetic acid] |
| 8.6 | 20 | – | CC(C)(O)CCN1CCN(c2ncc(Oc3cc(CN4CCC(CC(=O)O)CC4)cc(-c4cc(Cl)cc(Cl)c4)n3)cn2)CC1 [Example 279, 2-(1-((2-(3,5-dichlorophenyl)-6-((2-(4-(3-hydroxy-3-methylbutyl)piperazin-1-yl)pyrimidin-5-yl)oxy)pyridin-4-yl)methyl)piperidin-4-yl)acetic acid] |
| 8.3 | 15.8 | – | CC(C)(CO)CN1CCN(c2ncc(Oc3cc(CN4CCC(CC(=O)O)CC4)cc(-c4cc(Cl)cc(Cl)c4)n3)cn2)CC1 [Example 280, 2-(1-((2-(3,5-dichlorophenyl)-6-((2-(4-(3-hydroxy-2,2-dimethylpropyl)piperazin-1-yl)pyrimidin-5-yl)oxy)pyridin-4-yl)methyl)piperidin-4-yl)acetic acid] |

— patent US11773078B2, “Furin inhibitors” (Glaxosmithkline Intellectual Property Development Limited, priority 2018, dated 2023)
